Data taken from US5217950A, “Nisin compositions for use as enhanced, broad range bactericides” (Applied Microbiology, Inc., priority 1992, dated 1993).
Where no end group is shown, it is not given here.

Columns and labels:
Streptococcus mutans [1] = test: bactericidal activity and kinetics: percent bacterial survival in Tris buffer; format: cell-based; details: for % Survival: 1.0 mM EDTA, nisin 0, 20 mM Tris-HCl pH 7.3
Description: Incubations were performed in 20 mM Tris-HCl, pH 8.0 at 37° C.
The suspensions were incubated for various times ranging from 0.5 to 60 minutes with the bactericides. The bactericidal efficacy of the bactericides was estimated by determining the percent survival of bacteria.
Incubations were performed in 20 mM Tris-HCl, pH 7.3 at 37° C.

[2] = system: S. typhimurium on chicken muscle; test: bactericidal activity on inoculated chicken muscle, survival of unadhered cells; format: cell-based, Salmonella typhimurium
Description: (§1) All tests in the following examples were performed at 37° C. The efficacy of the enhanced broad range bactericides was determined by assaying bactericidal activity as measured by the percent bacterial survival after treatment with the bactericide. Generally, after incubation of a 10^7 cell per ml suspension of target species with the novel bactericide for specified lengths of time, bacteria were collected by centrifugation for 2 minutes. The bacterial pellet was washed free of the bactericide with a rescue buffer, termed herein Phage buffer (50 mM Tris-HCl buffer pH 7.8, 1 mM MgSO4, 4 mM CaCl2, 0.1M Nacl, and 0.1% gelatin), resuspended and serially diluted into Phage buffer, and 100 μl of the suspended bacteria were spread on nutrient agar plates. Surviving bacteria were determined by scoring colony forming units (CFU) after incubation for 24-48 hours at 37° C. An effective bactericide according to this invention is one which allows less than 0.1% of the initial viable count of the bacteria to survive.
Incubations were performed in either 50 mM sodium acetate, pH 5.0, or 20 mM Tris, pH 8.0 at 37° C.
Cubes of chicken muscle were cleansed with sodium hypochlorite and povidone iodine prior to use. To inoculate the tissue, the cubes of chicken muscle were dipped into a 10^8 cells/ml suspension of S. typhimurium in 20 mM Tris HCl, pH 8.0. Excess moisture was removed from dipped cubes by tapping. The chicken samples were placed into sufficient buffer containing the nisin composition to cover the tissue and incubated for 2 hours at 37° C. after which the tissue was removed to sufficient Phage buffer to cover the tissue. The bacteria remaining in the test solution were collected by centrifugation, washed with Phage buffer, and combined with bacteria washed from the tissue by Phage buffer. The combined samples (termed "unadhered" cells) were serially diluted and 100 μl aliquots were plated for determination of surviving bacteria.
(§2) Cubes of chicken muscle were cleansed with sodium hypochlorite and povidone iodine prior to use. To inoculate the tissue, the cubes of chicken muscle were dipped into a 10^8 cells/ml suspension of S. typhimurium in 20 mM Tris HCl, pH 8.0. Excess moisture was removed from dipped cubes by tapping. The tissue was placed into sufficient buffer containing the nisin compositions to cover the tissue, and incubated for 2 hours at 37° C. after which the tissue was removed to sufficient Phage buffer to cover the tissue. The bacteria remaining in the test solution were collected by centrifugation, washed with Phage buffer, and combined with bacteria washed from the tissue by Phage buffer. The combined samples (termed "unadhered" cells) were serially diluted and 100 μl aliquots were plated for determination of surviving bacteria.
as §2, with “cleaned” for “cleansed”, “50” for “20”, “sodium acetate buffer,” for “Tris HCl,”, “5.0.” for “8.0.”, “containing” for “containing the”

Listeria monocytogenes [3] = test: bactericidal activity: percent bacterial survival in Tris buffer; format: cell-based; details: 20 mM Tris-HCl pH 8.0
Description: as §1
(§3) Incubations were performed in 20 mM Tris-HCl, pH at 8.0 at 37° C.

S. typhimurium = test: bactericidal activity: percent bacterial survival after treatment, suspension in buffer; format: cell-based, Salmonella typhimurium
Description: as §1, with “C.” for “C. An effective bactericide according to this invention is one which allows less than 0.1% of the initial viable count of the bacteria to survive.”
The control (Test #1) is identical to the control of Example 1 (Table 1).

Streptococcus agalactiae = test: bactericidal activity in milk; format: cell-based
Description: as §1
However, the combination of the two agents, 0.1% monolaurin and nisin 0.2 μg/ml, is extremely potent towards S. agalactiae. […] Thus, when the application of nisin is limited by its available activity, a bactericide comprising nisin with a surfactant can be expected to be more useful.
(§4) Incubations were in milk at 37° C.

Streptococcus mutans [4] = test: rapid bactericidal activity in the presence of divalent cation, 10% Fetal Calf Serum; format: cell-based; details: Nisin 3, no EDTA, CaCl3 0 mM
Description: Incubations were performed in 10% Fetal Calf Serum at 37° C.

E. coli = test: bactericidal activity: percent bacterial survival after treatment, suspension in buffer; format: cell-based, Escherichia coli; details: for Percentage E. coli Survival at 2 hours: 20 mM Tris pH 8.0, 37° C
Description: as §1, with “C.” for “C. An effective bactericide according to this invention is one which allows less than 0.1% of the initial viable count of the bacteria to survive.”
The effects of the bactericide were measured as a function of percentage bacteria survival after 2 hours.
Incubations were performed in 20 mM Tris-HCl, […] at 37° C.

Listeria monocytogenes [5] = test: bactericidal activity in milk; format: cell-based
Description: as §1
An example of where the application of nisin is limited by its available activity is illustrated by the data in Table 15B.
as §4

K. pneumoniae = test: bactericidal activity: percent bacterial survival after treatment, suspension in buffer; format: cell-based, Klebsiella pneumoniae; details: 20 mM Tris pH 8.0, 37° C
Description: as §1, with “C.” for “C. An effective bactericide according to this invention is one which allows less than 0.1% of the initial viable count of the bacteria to survive.”
The effect was measured as a function of percentage bacterial survival after 2 hours.

Staphylococcus aureus = test: bactericidal activity: percent bacterial survival, influence of pH and EDTA; format: cell-based
Description: as §1
Incubations were performed in 50 mM sodium acetate buffer, pH 5.0 or 20 m
TrisHCl buffer, pH 8.0 at 37° C.

Coryneform bacteria = test: bactericidal activity: percent bacterial survival in Tris buffer; format: cell-based, mixed population of axillary Coryneform bacteria; details: 20 mM Tris-HCl pH 8.0
Description: as §1, with “C.” for “C. An effective bactericide according to this invention is one which allows less than 0.1% of the initial viable count of the bacteria to survive.”
as §3

nisin (ITSISLCTPGCKTGALMGCNMKTATCHCSIHVSK; cysteine pairing not given here; also: lantibiotic, modifications not placed; UniProt P13068 24-57, looked up) [polypeptide bacteriocin with antimicrobial properties produced by strains of Streptococcus lactis]
% Survival after 2 hr (Streptococcus mutans [1]; nisin 0.1 μg/ml, EDTA 0, 20 mM Tris-HCl pH 8.0): 4.3% | % Survival at 2 hours (unadhered cells) ([2]; nisin 300 μg/ml, EDTA 0, 1% Bovine serum albumin, 20 mM Tris pH 8.0): 0.02% | % Survival at 2 hours (unadhered cells) ([2]; nisin 300 μg/ml, EDTA 0, 20 mM Tris pH 8.0): 7.5% | % Survival at 2 hours (unadhered cells) ([2]; nisin 300 μg/ml, EDTA 0, 50 mM sodium acetate pH 5.0): 0.1% | % Survival after 2 hr (Listeria monocytogenes [3]; nisin 3.0 μ/ml, EDTA 0): 0.71% | % Survival at 2 hours (S. typhimurium; nisin 10 μg/ml, EDTA 0, BSA 0, Tris buffer (Table 8)): 51.3% | Percentage S. typhimurium Survival at 3 hours (S. typhimurium; nisin 50 μg/ml, EDTA 0, 20 mM Tris pH 8.0, 37° C): 7.0% | % Survival at 2 hours (S. typhimurium; nisin 100 μg/ml, EDTA 0, BSA 0, Tris buffer (Table 8)): 1.6% | Percentage S. typhimurium Survival at 3 hours (S. typhimurium; nisin 100 μg/ml, EDTA 0, 20 mM Tris pH 8.0, 37° C): 1.6% | % Survival at 2 hours (S. typhimurium; nisin 100 μg/ml, EDTA 0, 20 mM Tris pH 8.0, 37° C (Table 6)): 4% | % Survival at 2 hours (S. typhimurium; nisin 100 μg/ml, EDTA 0, 50 mM sodium acetate pH 5.0, 37° C): 0.6% | % survival at 2 h (Streptococcus agalactiae; nisin 0.02 μg/ml, Monolaurin 0, 37° C): 100% | % survival at 2 h (Streptococcus agalactiae; nisin 0.2 μg/ml, Monolaurin 0, 37° C): 2.2% | % survival at 1 min. (Streptococcus mutans [4]): 2.9% | Percentage E. coli Survival at 2 hours (E. coli; nisin 30 μg/ml, EDTA 0, Triton X-100 0): 27% | Percentage E. coli Survival at 2 hours (E. coli; nisin 100 μg/ml, EDTA 0, Triton X-100 0): 25% | Percentage E. coli Survival at 2 hours (E. coli; nisin 300 μg/ml, EDTA 0, Triton X-100 0): 8.5% | % Survival 2 hr (Listeria monocytogenes [5]; nisin 100 μg/ml, Monooleate 0, 37° C): 0.56% | % Survival at 2 hours (K. pneumoniae; nisin 100 μg/ml, EDTA 0): 50% | % Survival at 2 hours (K. pneumoniae; nisin 300 μg/ml, EDTA 0): 38% | % Survival 2 hr (Staphylococcus aureus; nisin 3.0 μg/ml, EDTA 0, pH 5.0): 0.6% | % Survival 2 hr (Staphylococcus aureus; nisin 3.0 μg/ml, EDTA 0, pH 8.0): 7.4% | % Survival 2 hr (Coryneform bacteria; nisin 3 μg/ml, EDTA 0): 0.22%

monooleate
% Survival 2 hr (Listeria monocytogenes [5]; Monooleate 0.1%, nisin 0, 37° C): 67% | % Survival 2 hr (Listeria monocytogenes [5]; Monooleate 1.0%, nisin 0, 37° C): 63% | bactericidal activity towards L. monocytogenes (Listeria monocytogenes [5]; monooleate by itself): no bactericidal activity

Triton X-100
Percentage E. coli Survival at 2 hours (E. coli; Triton X-100 1.0%, nisin 0, EDTA 0): 100% | bactericidal activity towards E. coli (E. coli; Triton X-100 1.0%, tests #3 and #4 of Table 4): no significant bactericidal activity

CCCCCCCCCCCC(=O)OCC(O)CO (stereo not drawn) [Monolaurin, monolaurin]
% survival at 2 h (Streptococcus agalactiae; Monolaurin 0.01%, nisin 0, 37° C): 100% | % survival at 2 h (Streptococcus agalactiae; Monolaurin 0.1%, nisin 0, 37° C): 4.5%

O=C([O-])CN(CCN(CC(=O)[O-])CC(=O)O)CC(=O)O.[Na+].[Na+] [EDTA]
% Survival (Streptococcus mutans [1]; incubation 3 minutes): 100% | % Survival (Streptococcus mutans [1]; incubation 60 minutes): 100% | % Survival at 2 hours ([2]; EDTA 1.0 mM, BSA 1.0%, nisin 0, pH 8.0): 27% | % Survival at 2 hours (unadhered cells) ([2]; EDTA 10 mM, nisin 0, 20 mM Tris pH 8.0): 5.2% | % Survival at 2 hours (unadhered cells) ([2]; EDTA 10 mM, nisin 0, 50 mM sodium acetate pH 5.0 (Table 7)): 6.4% | % Survival after 2 hr (Listeria monocytogenes [3]; EDTA 1.0 mM, nisin 0): 84% | % Survival at 2 hours (S. typhimurium; EDTA 1.0 mM, BSA 1.0%, nisin 0, 20 mM Tris pH 8.0): 63% | % Survival at 2 hours (S. typhimurium; EDTA 2.0 mM, nisin 0, 20 mM Tris pH 8.0, 37° C): 8.7% | % Survival at 2 hours (S. typhimurium; EDTA 10 mM, nisin 0, 20 mM Tris pH 8.0, 37° C): 14% | Percentage S. typhimurium Survival at 3 hours (S. typhimurium; EDTA 20 mM, nisin 0, 20 mM Tris pH 8.0, 37° C): 2.5% | % Survival at 2 hours (S. typhimurium; EDTA 50 mM, nisin 0, 50 mM sodium acetate pH 5.0, 37° C): 3.5% | % Survival at 2 hours (S. typhimurium; EDTA 100 mM, nisin 0, 20 mM Tris pH 8.0, 37° C): 45% | % survival at 1 min. (E. coli; EDTA 1.0 mM, nisin 0, 20 mM Tris-HCl pH 7.0): 100% | % Survival at 2 hours (K. pneumoniae; EDTA 20 mM, nisin 0): 22% | % Survival 2 hr (Staphylococcus aureus; EDTA 0.3 mM, nisin 0, pH 8.0): 100% | % Survival 2 hr (Staphylococcus aureus; EDTA 1.0 mM, nisin 0, pH 8.0): 81% | % Survival 2 hr (Staphylococcus aureus; EDTA 3.0 mM, nisin 0, pH 5.0): 100% | % Survival 2 hr (Staphylococcus aureus; EDTA 3.0 mM, nisin 0, pH 8.0): 100% | % Survival 2 hr (Staphylococcus aureus; EDTA 10 mM, nisin 0, pH 8.0): 100% | % Survival 2 hr (Staphylococcus aureus; EDTA 30 mM, nisin 0, pH 8.0): 100% | % Survival 2 hr (Coryneform bacteria; EDTA 0.3 mM, nisin 0): 4.6% | % Survival 2 hr (Coryneform bacteria; EDTA 1.0 mM (last column, after 3.0), nisin 0): 36% | % Survival 2 hr (Coryneform bacteria; EDTA 1.0 mM, nisin 0): 3.6% | % Survival 2 hr (Coryneform bacteria; EDTA 3.0 mM, nisin 0): 8%
